From ChEMBL document CHEMBL6127061, “Discovery of orally bioavailable ALK PROTACs based ceritinib against ALK positive cancers” (Eur J Med Chem, 2024)

What was measured:
[1] = microsomes, 1 h, 1.5 µM
Description: Metabolic stability in liver microsomes (unknown origin) at 1.5 uM measured upto 60 mins in presence of NADPH by LC-MS/MS analysis

[2] = human, plasma, 1 h
Description: Metabolic stability in human plasma measured upto 60 mins in presence of NADPH by LC-MS/MS analysis

[3] = Half life in ICR mouse at 1 mg/kg, iv measured upto 24 hrs by LC-MS/MS analysis; assay type: ADME, organism-based; settings: in vivo
[4] = Tmax in ICR mouse at 1 mg/kg, iv measured upto 24 hrs by LC-MS/MS analysis; assay type: ADME, organism-based; settings: in vivo
[5] = Cmax in ICR mouse at 1 mg/kg, iv measured upto 24 hrs by LC-MS/MS analysis; assay type: ADME, organism-based; settings: in vivo
[6] = AUC(0 to 24 hrs) in ICR mouse at 1 mg/kg, iv measured upto 24 hrs by LC-MS/MS analysis; assay type: ADME, organism-based; settings: in vivo
[7] = AUCinfinity in ICR mouse at 1 mg/kg, iv measured upto 24 hrs by LC-MS/MS analysis; assay type: ADME, organism-based; settings: in vivo
[8] = MRT(0 to t) in ICR mouse at 1 mg/kg, iv measured upto 24 hrs by LC-MS/MS analysis; assay type: ADME, organism-based; settings: in vivo
[9] = MRTinfinity in ICR mouse at 1 mg/kg, iv measured upto 24 hrs by LC-MS/MS analysis; assay type: ADME, organism-based; settings: in vivo
[10] = Half life in ICR mouse at 10 mg/kg, po measured upto 24 hrs by LC-MS/MS analysis; assay type: ADME, organism-based; settings: in vivo
[11] = Tmax in ICR mouse at 10 mg/kg, po measured upto 24 hrs by LC-MS/MS analysis; assay type: ADME, organism-based; settings: in vivo
[12] = Cmax in ICR mouse at 10 mg/kg, po measured upto 24 hrs by LC-MS/MS analysis; assay type: ADME, organism-based; settings: in vivo
[13] = AUC(0 to 24 hrs) in ICR mouse at 10 mg/kg, po measured upto 24 hrs by LC-MS/MS analysis; assay type: ADME, organism-based; settings: in vivo
[14] = AUCinfinity in ICR mouse at 10 mg/kg, po measured upto 24 hrs by LC-MS/MS analysis; assay type: ADME, organism-based; settings: in vivo
[15] = MRT(0 to t) in ICR mouse at 10 mg/kg, po measured upto 24 hrs by LC-MS/MS analysis; assay type: ADME, organism-based; settings: in vivo
[16] = MRTinfinity in ICR mouse at 10 mg/kg, po measured upto 24 hrs by LC-MS/MS analysis; assay type: ADME, organism-based; settings: in vivo
[17] = Oral bioavailability in ICR mouse at 10 mg/kg measured upto 24 hrs by LC-MS/MS analysis; assay type: ADME, organism-based; settings: in vivo
[18] = Drug concentration in ICR mouse at 10 mmg/kg, po measured after 0.5 to 24 hrs; assay type: ADME, organism-based; settings: in vivo, 10 mg/kg, time 0.5-24 hrs

| SMILES | Stability [1] | Stability [2] | half-life [3] | Tmax [4] | Cmax [5] | AUC(0-t) at 24 h [6] | AUC(0-inf) [7] | MRT last at 24 h [8] | MRT inf [9] | half-life [10] | Tmax [11] | Cmax [12] | AUC(0-t) at 24 h [13] | AUC(0-inf) [14] | MRT last at 24 h [15] | MRT inf [16] | bioavailability [17] | Drug uptake [18] |
| --- | --- | --- | --- | --- | --- | --- | --- | --- | --- | --- | --- | --- | --- | --- | --- | --- | --- | --- |
| Cc1cc(Nc2ncc(Cl)c(Nc3ccccc3S(=O)(=O)C(C)C)n2)c(OC(C)C)cc1C1CCN(C2CCN(C3CN(c4ccc5c(c4)C(=O)N(C4CCC(=O)NC4=O)C5=O)C3)CC2)CC1 (stereo not given) | Stable | Stable | – | – | – | – | – | – | – | – | – | – | – | – | – | – | – | – |
| Cc1cc(Nc2ncc(Cl)c(Nc3ccccc3S(=O)(=O)C(C)C)n2)c(OC(C)C)cc1C1CCN(C2CN(C3CCN(c4ccc5c(c4)C(=O)N(C4CCC(=O)NC4=O)C5=O)CC3)C2)CC1 (stereo not given) | Stable | Stable | 10.8 h | 4.98 min | 3000 ng/mL | 17600 ng·h/mL | 21700 ng·h/mL | 7.19 h | 13.2 h | 11.2 h | 4 h | 1710 ng/mL | 23900 ng·h/mL | 30800 ng·h/mL | 8.61 h | 15.7 h | 14.2% | 400 ng/mL |
